Consider three molecules from paper PMC4468427, “Antiviral activity of silymarin against chikungunya virus” (Scientific Reports, 2015).

In brackets after ≈: the same amount, converted by molar mass. Entries after “also recorded” stand apart in the source; their conditions may differ. Where two headings read alike, the source gives them in different places. Where only a bound is given, the exact number is not on record here.

One may read the CC50 as the concentration giving 50% cytotoxicity. What is called IC50 is the concentration needed to halve the response being measured.

The test system of one data set is Vero cells. The experiment in a line: MTS cytotoxicity assay on Vero cells. The settings on record: Vero cells, MTS assay, 2 days; more than 95% of treated cells viable. Background: Tetrazolium dyes change colour on reduction, which living cells bring about.
A short description of data set [1]: MTS cytotoxicity assay on Vero cells. As to conditions: African green monkey.
The test system of data set [2] is CHIKV. The experiment in a line: Post-entry virus yield assay, CHIKV RNA copy number by qRT-PCR. The settings on record: for Inhibitory effect against CHIKV replication (RNA copy number): virus yield assay, qRT-PCR, Vero cells.
The next data set relates to CHIKV replicon. Also noted: method as in PMID 22205980. The settings on record: previous study, cited from earlier work.
The nature of data set [3]: MTS cytotoxicity assay on BHK-21 cells. The settings on record: hamster.
Another data set relates to BHK-21 cells. The experiment in a line: MTS cytotoxicity assay on BHK-21 cells. The settings on record: BHK-21 cells, MTS assay, 2 days; more than 95% of treated cells viable.
Data set [4] has as its system CHIKV. In words: Primary screening: CPE inhibition assay (confirmed by MTS) in CHIKV-infected Vero cells. As to conditions: for Antiviral activity in CPE inhibition and MTS assays: MOI = 1, 48 h; for CPE inhibitory activity: highest concentrations (tested as high as 200 μg/ml), MOI = 1, 48 hpi.

With `COc1cc(C2Oc3cc([C@H]4Oc5cc(O)cc(O)c5C(=O)[C@@H]4O)ccc3OC2CO)ccc1O` (stereo partly shown) [Silybin], the “MNTD (maximum non-toxic dose)” value with Vero cells was greater than 50 µg/mL. In data set [1], this molecule returned a CC50 at 48 h greater than 200 µg/mL. In addition, the half-inhibitory concentration (IC50) in the data set with CHIKV [2] (Chikungunya virus, Vero) was 69.7 µg/mL (≈ 144 µM); with CHIKV replicon (converted from μM), “approximately 30 μg/ml”; with CHIKV replicon (read-out: IC50) it was 59.8 µM.

For the molecule `O=c1c(O)c(-c2ccc(O)c(O)c2)oc2cc(O)cc(O)c12` [Quercetin], the 50% cytotoxic concentration (CC50) at 2 days in data set [3] was greater than 800 µg/mL. The “MNTD (maximum non-toxic dose)” value in the data set with BHK-21 cells is greater than 500 µg/mL. In the data set with CHIKV [4], the “Antiviral activity in CPE inhibition and MTS assays” value is recorded as “neither kaempferol nor quercetin showed significant antiviral activity”; the CPE inhibitory activity is recorded as 25%. Besides, the “MNTD (maximum non-toxic dose)” value in the data set on Vero cells was greater than 400 µg/mL. Also, in data set [1], the CC50 at 48 h was greater than 1000 µg/mL. Also, the “Inhibitory effect against CHIKV replication (RNA copy number)” value in the data set on CHIKV [2] is “neither kaempferol nor quercetin showed any significant inhibitory effect; also recorded: no significant inhibitory effect”.

With `O=c1c(O)c(-c2ccc(O)cc2)oc2cc(O)cc(O)c12` [Kaempferol], in data set [3], the CC50 at 2 days was determined as 537 µg/mL (≈ 1880 µM). For the same molecule, in the data set with BHK-21 cells, the “MNTD (maximum non-toxic dose)” value was greater than 200 µg/mL. For the same molecule, in the data set with CHIKV [4], the “Antiviral activity in CPE inhibition and MTS assays” value was “neither kaempferol nor quercetin showed significant antiviral activity”; the CPE inhibitory activity is given as 25%. In addition, the “MNTD (maximum non-toxic dose)” value in the data set with Vero cells was greater than 400 µg/mL. Moreover, the cytotoxic concentration (CC50) at 48 h in data set [1] was greater than 1000 µg/mL. Further, the “Inhibitory effect against CHIKV replication (RNA copy number)” value in the data set on CHIKV [2] is “neither kaempferol nor quercetin showed any significant inhibitory effect; also recorded: no significant inhibitory effect”.
